Reference: patent US20060140885A1, “Method of reducing oral tissue inflammation using magnolia extract” (priority 2004, published 2006)

tested on: S. mutans; assay: Minimal Inhibitory Concentration (MIC) in vitro test against S. mutans; assay type: cell-based
Source text: The compositions of the present invention comprise an extract of magnolia. As referred to here, such an “extract” of magnolia is an extract from dried cortex, or bark, of a plant from the Magnoliaceae family, such as Magnolia officinalis, (hereinafter “magnolia”) or a synthetic or semi-synthetic equivalent of such an extract or an active component or compound thereof. […] It should be noted that any plant from the Magnoliaceae family is suitable for the present invention and may be used in alternate embodiments, preferably such that the extract comprises an antimicrobially effective concentration of a compound selected from the group consisting of magnolol, honokiol, tetrahydromagnolol, tetrahydrohonokiol, and mixtures thereof.

Row | Structure (SMILES) | bactericidal properties against S. mutans (MIC test)
1 | CCCc1ccc(O)c(-c2ccc(O)c(CCC)c2)c1 [tetrahydrohonokiol] | bactericidal properties
2 | C=CCc1ccc(O)c(-c2cc(CC=C)ccc2O)c1 [magnolol] | bactericidal properties
3 | CCCc1ccc(O)c(-c2cc(CCC)ccc2O)c1 [tetrahydromagnolol] | bactericidal properties
4 | C=CCc1ccc(O)c(-c2ccc(O)c(CC=C)c2)c1 [honokiol] | bactericidal properties
